pIC50: −log10 of the molar value.
Tests used:
[1] = Cholesterol fractionation in C57BL6J mice on in-diet imirestat; format: in vivo; conditions: C57BL6J 24 week old male mice, 4 weeks in-diet Imirestat; FIG. 7
Method: (§1) AKR1A1^−/− mice were generated by Deltagen, Inc. C57BL6/J and ApoE^−/− mice were purchased from The Jackson Laboratory. CETP-ApoB100 transgenic mice were purchased from Taconic Biosciences. All mice were maintained under a 12-hour light/dark cycle. For imirestat treatment studies, mice were provided control chow or chow containing 0.0125% w/w imirestat (125 mg imirestat/1 kg chow) ad libitum. C57BL6/J and ApoE^−/− mice were provided control chow or imirestat chow for 4 weeks starting at age 20 weeks; CETP-ApoB100 transgenic mice were provided control chow or imirestat chow for 8 weeks starting at age 10 weeks.
(§2) Prior to euthanasia, mice were fasted for the indicated length of time. […] Collected blood was allowed to coagulate for 20 minutes at room temperature in a pediatric serum separator tube. Serum was separated by centrifugation at 2000 g for 20 minutes at 4° C. […]
(§3) Total serum cholesterol was determined by standard enzymatic assays. For lipoprotein cholesterol quantification, lipoprotein fractions were separated by gel filtration column chromatography. Approximately 70 fractions were collected and cholesterol in each fraction was quantified by standard enzymatic assays. Calibration of the column with purified lipoprotein fractions permitted quantification of cholesterol in various lipoprotein classes. Serum PCSK9 was quantified by solid phase sandwich ELISA.

[2] = Total serum cholesterol in C57BL6J mice on in-diet imirestat; format: in vivo; conditions: C57BL6J 24 week old male mice, 4 weeks in-diet Imirestat (0.0125% w/w chow); FIG. 6
Method: as §1, §2, §3

[3] = Total serum cholesterol in CETP/ApoB100 transgenic mice on in-diet imirestat; format: in vivo; conditions: CETP/ApoB100 transgenic male mice, FIG. 13
Method: AKR1A1^−/− mice were generated by Deltagen, Inc. C57BL6/J and ApoE^−/− mice were purchased from The Jackson Laboratory. CETP-ApoB100 transgenic mice were purchased from Taconic Biosciences. All mice were maintained under a 12-hour light/dark cycle. For imirestat treatment studies, mice were provided control chow or chow containing 0.0125% w/w imirestat (125 mg imirestat/1 kg chow) ad libitum. […]
Prior to euthanasia, mice were fasted for the indicated length of time. […] Collected blood was allowed to coagulate for 20 minutes at room temperature in a pediatric serum separator tube. Serum was separated by centrifugation at 2000 g for 20 minutes at 4° C. Serum was stored at −80° C. until analysis. For overnight fasted 12-week-old AKR1A1^−/− mice (FIG. 5), whole blood was provided to University Hospitals' Clinical Laboratory (Cleveland, Ohio) for cholesterol analysis. […]
as §3

PCSK9 [4] = test: Serum PCSK9 levels in ApoE deficient mice on in-diet imirestat (ELISA); format: in vivo; conditions: ApoE deficient 24 week old male mice, 4 weeks in-diet Imirestat; FIG. 12
Method: as §1, §2, §3

human AKR1A1 = target: T1, human AKR1A1 (Homo sapiens, UniProt P14550); test: AKR1A1 SNO-CoA reductase activity assay (recombinant enzyme); format: biochemical; conditions: 200 nM recombinant AKR1A1, 100 μM NADPH, 100 μM SNO-CoA; FIG. 5; read-out: IC50 for inhibition of AKR1A1 SNO-CoA Reductase Activity
T1 construct: His; made in house; host or cells: Rosetta2(DE3)pLysS E. coli
T1 sequence (P14550 1-325): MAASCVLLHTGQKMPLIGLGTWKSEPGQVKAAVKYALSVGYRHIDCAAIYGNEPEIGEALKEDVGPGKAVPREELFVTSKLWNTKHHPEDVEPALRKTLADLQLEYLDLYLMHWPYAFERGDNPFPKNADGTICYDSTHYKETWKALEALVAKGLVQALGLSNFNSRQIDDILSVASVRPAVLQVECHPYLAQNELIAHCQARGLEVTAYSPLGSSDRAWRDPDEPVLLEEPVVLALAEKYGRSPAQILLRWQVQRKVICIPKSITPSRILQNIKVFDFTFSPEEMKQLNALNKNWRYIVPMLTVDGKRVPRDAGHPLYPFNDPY
Method: The human AKR1A1 coding sequence was cloned into a pET21b bacterial expression vector. pET21b-AKR1A1 was transformed into Rosetta2(DE3)pLysS E. coli and expression was induced by the addition of 100 μM isopropyl-β-D-1-thiogalactopyranoside at A600nm=0.4. Bacteria were grown for 4 hours at 25° C. and recombinant His-tagged SCoR was purified via Ni-affinity purification. Triplicate reactions were performed with 200 nM recombinant AKR1A1, 100 μM NADPH, 100 μM SNO-CoA, and increasing concentrations of imirestat dissolved in dimethyl sulfoxide (DMSO). SNO-CoA was prepared by reacting equal volumes of 0.1M CoA in 1M HCl and 0.1M NaNO2 water containing 100 μM EDTA and 100 μM DTPA. Initial rates were calculated using absorbance decrease at 340 nm. IC50 was calculated in GraphPad Prism 7 using non-linear regression analysis. For AKR1A1 liver activity following in-diet imirestat treatment, frozen liver tissue was dounce homogenized (30 dounces) in 50 mM phosphate buffer, pH 7.0 supplemented with 100 μM ethylenediaminetetraacetic acid (EDTA) and diethylenetriamine pentaacetate (DTPA) and 150 mM sodium chloride. […] Reactions were initiated by the addition of liver lysate and specific activity was calculated from the change in absorbance at 340 nm, protein concentration, and an extinction coefficient of 7.06 mM^−1·cm^−1 (combined for SNO-CoA and NADPH).

PCSK9 [5] = test: Serum PCSK9 levels in C57BL6J mice on in-diet imirestat (ELISA); format: in vivo; conditions: C57BL6J 24 week old male mice, 4 weeks in-diet Imirestat; FIG. 8
Method: as §1, §2, §3

[6] = Cholesterol fractionation in ApoE deficient mice on in-diet imirestat; format: in vivo; conditions: ApoE deficient 24 week old male mice, 4 weeks in-diet Imirestat; FIG. 11
Method: as §1, §2, §3

[7] = Total serum cholesterol in ApoE deficient mice on in-diet imirestat; format: in vivo; conditions: ApoE deficient 24 week old male mice, 4 weeks in-diet Imirestat; FIG. 10
Method: as §1, §2, §3

AKR1A1 = target: T2, AKR1A1 (Mus musculus, UniProt Q9JII6); test: SNO-CoA reductase activity in liver lysate of C57BL6J mice after in-diet imirestat; format: in vivo; conditions: C57BL6J 24 week old male mice, 4 weeks in-diet Imirestat; FIG. 9
T2 construct: For AKR1A1 liver activity following in-diet imirestat treatment, frozen liver tissue was dounce homogenized; from tissue; host or cells: liver of C57BL6/J mice (clarified lysate)
T2 sequence (Q9JII6 1-325): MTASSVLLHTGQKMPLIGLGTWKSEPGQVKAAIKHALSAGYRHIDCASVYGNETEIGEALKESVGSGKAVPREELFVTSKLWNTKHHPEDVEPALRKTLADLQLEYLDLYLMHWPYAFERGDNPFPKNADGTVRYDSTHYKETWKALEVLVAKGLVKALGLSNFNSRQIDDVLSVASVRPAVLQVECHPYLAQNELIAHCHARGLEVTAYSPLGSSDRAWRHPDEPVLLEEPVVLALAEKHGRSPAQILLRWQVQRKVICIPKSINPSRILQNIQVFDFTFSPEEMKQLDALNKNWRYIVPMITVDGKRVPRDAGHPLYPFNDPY
Method: as §1
Prior to euthanasia, mice were fasted for the indicated length of time. […]
The human AKR1A1 coding sequence was cloned into a pET21b bacterial expression vector. pET21b-AKR1A1 was transformed into Rosetta2(DE3)pLysS E. coli and expression was induced by the addition of 100 μM isopropyl-β-D-1-thiogalactopyranoside at A600nm=0.4. […] Initial rates were calculated using absorbance decrease at 340 nm. IC50 was calculated in GraphPad Prism 7 using non-linear regression analysis. […] Reactions were initiated by the addition of liver lysate and specific activity was calculated from the change in absorbance at 340 nm, protein concentration, and an extinction coefficient of 7.06 mM^−1·cm^−1 (combined for SNO-CoA and NADPH).

In the case of O=C1NC(=O)C2(N1)c1cc(F)ccc1-c1ccc(F)cc12 [Imirestat, 2,7-Difluoro-2′H,5′H-spiro[fluorene-9,4′-imidazolidine]-2′,5′-dione], the “cholesterol fractionation vs control” value [1] was “reduced total serum cholesterol”, the “total serum cholesterol vs control” value [2] was “lower total serum cholesterol” and the “total serum cholesterol vs control” value [3] was “lower total serum cholesterol”. The “serum PCSK9 levels vs control” value (PCSK9 [4]) was “lower total serum PCSK9 levels”, the pIC50 (human AKR1A1) was about 6.92 and the “serum PCSK9 levels vs control” value (PCSK9 [5]) was “lower total serum PCSK9 levels”. For the same compound, the “cholesterol fractionation vs control” value [6] was “reduced total serum cholesterol”, the “total serum cholesterol vs control” value [7] was “lower total serum cholesterol” and the “SNO-CoA Reductase activity in liver (AKR1A1 liver activity) vs control” value (AKR1A1) was “lower AKR1A1 liver activity”.

— patent US11576900B2, “Compositions and methods of reducing serum cholesterol and PCSK9” (CASE WESTERN RESERVE UNIVERSITY, priority 2017, dated 2023)
